B1: fibroblast growth factor 10 (protein, UniProt O15520 38-208, looked up)
Fibroblast growth factor 10: QALGQDMVSPEATNSSSSSFSSPSSAGRHVRSYNHLQGDVRWRKLFSFTKYFLKIEKNGKVSGTKKENCPYSILEITSVEIGVVAVKAINSNYYLAMNKKGKLYGSKEFNNDCKLKERIEENGYNTYASFNWQHNGRQMYVALNGKGAPRRGQKTRRKNTSAHFLPMVVHS
notes: growth factor used as culture medium additive

Assays:
Assay type in all cases: cell-based, human
breast tumor cells (5 #) = test: In vitro drug sensitivity test, Cell Titer-Glo cell viability; details: 72 hours after drug administration, 1:3 dilution series from 2 times Cmax
Protocol: I. Plating of primary breast cancer cells: using the culture medium of the invention in section (5) of Example 1, breast tumor cells (5 #) were cultured by the method described in section (1) of Example 2, and the cells were inoculated in a 384-well plate at a density of 3000 to 5000 cells/well, and the cells were subjected to adherent culture overnight.
(1) The drug storage plate was prepared by the concentration gradient dilution method: 10 μL of the drug stock solutions to be tested (the concentration of the drug stock solution was prepared at 2 times the maximum plasma concentration Cmax of the drug in the human body) were respectively taken and added to a 0.5 mL EP tube containing 20 μL of DMSO, and then 10 μL was aspirated from the above EP tube into a second 0.5 mL EP tube containing 20 μL of DMSO, that is, the drug was diluted 1:3. The above process was repeated for gradually dilution until 8 or 9 concentrations required for dosing were obtained. Different concentrations of drugs were added to the 384-well drug storage plate. Equal volume of DMSO was added to each well of the solvent control group as a control. In this example, the drugs to be tested are clinically approved anti-tumor drugs, docetaxel (MCE), palbociclib (MCE), dovitinib (MCE), capecitabine (MCE), crizotinib (MCE) and etoposide (MCE).
(2) Using a high-throughput automated workstation (purchased from Perkin Elmer), different concentrations of drugs and solvent controls in the 384-well drug storage plates were added to the 384-well cell culture plates plated with the breast tumor cells. Both the drug groups and the solvent control groups were set up with 3 replicate wells. The volume of drug added to each well was 100 nL.
(3) Cell activity detection: 72 hours after drug administration, Cell Titer-Glo assay kit (manufactured by Promega) was used to detect the chemiluminescence value of the cultured cells after drug administration. The magnitude of the chemiluminescence value reflects the cell viability and the effect of the drug on the cell viability. The prepared Cell Titer-Glo detection solution was added to each well, and a microplate reader was used to detect the chemiluminescence value after mixing.
Graphpad Prism 7.0 software was used to draw graphs and calculate the median inhibition concentration IC50.

[1] = tested on: primary breast cancer cells isolated from breast tumor tissue; test: Screening of additive factors in the culture medium of primary mammary epithelial cells (cell count after 14 days); set-up: key to Level of promoting proliferation: +: compared with the Basal Medium, the culture medium added with the additive(s) has the effect of promoting the proliferation of at least three cases of primary breast cancer cells isolated from breast tumor tissue; ++: the number of “+” indicates the degree of proliferation promotion; ++++: the number of “+” indicates the degree of proliferation promotion; −: the culture medium added with the additive(s) has the effect of inhibiting the proliferation of at least two cases of primary breast cancer cells isolated from breast tumor tissue; the culture medium added with the additive(s) has no significant effect on the proliferation of at least three cases of primary breast cancer cells isolated from breast tumor tissue; details: 14 days of culture; for Level of promoting proliferation: additive added to Basal Medium at the concentration of Table 1, cell count compared with Basal Medium, five breast tumor samples; for promotion of growth of primary breast tumor cells (in words): additive added to Basal Medium, compared with Basal Medium
Protocol: First, a basal culture medium based on WO 2021/088119 was prepared. To a commercially available DMEM/F-12 culture medium, GlutaMAX-I (manufactured by Thermo Fisher Scientific) was added at the concentration specified in the instruction manual (1:100 dilution), human insulin (Sigma) was added at a final concentration of 10 μg/ml, ROCK inhibitor Y27632 (Sigma) was added at a final concentration of 10 μM, penicillin-streptomycin (Thermo Fisher Scientific) was added at a 1:100 dilution, human amphiregulin (manufactured by R&D systems) was added at a final concentration of 20 ng/ml, epidermal growth factor (EGF, manufactured by Peprotech) was added at a final concentration of 10 ng/ml, B27 (Thermo Fisher Scientific) was added at a 1:50 dilution, human neuregulin 1 (Peprotech) was added at a final concentration of 10 nM, fibroblast growth factor 7 (FGF7, R&D systems) was added at a final concentration of 10 ng/ml), and TGFβ1 inhibitor A8301 (manufactured by MCE) was added at a final concentration of 500 nM, to prepare a basal culture medium for primary mammary epithelial cells, hereinafter referred to as “Basal Medium”.
Then, different types of additives (Table 1) were added to the Basal Medium to prepare culture mediums for mammary epithelial cells containing different additives. The culture medium with different components was added to a 24-well plate coated with extracellular matrix gel at a volume of 500 μl/well, and 3 replicates were prepared for each culture medium formulation. The breast cancer cells (1 #) isolated from the breast tumor tissue in Example (1) were inoculated at a cell density of 3×10^4 cells/well in a 24-well culture plate coated with extracellular matrix gel, and cultured at 37° C. and 5% CO2 concentration using different culture medium formulations, respectively. The culture medium was replaced every 3 days after the start of culture. After 14 days of culture, the cells were counted. Basal Medium without addition of any additive shown in Table 1 was used as an experimental control.
The tumor cells isolated from the rest four cases of breast tumor tissue samples were also cultured and counted in the same manner as above.

[2] = tested on: primary breast cancer cells (2 #); test: Optimization of the concentration of additives in the culture medium (cell count on day 14, FIGS. 1A-1G); details: graded concentrations added to Formulations 1-7, 96-well plate, day 14 cell count
Protocol: The following 7 different formulations of culture mediums were further prepared: • Formulation 1: the Basal Medium was added with 1:100-fold diluted MEM-NEAA, 1 mM sodium pyruvate, 50 ng/ml IGF1, 20 ng/ml bFGF, 10 ng/ml TNF-α and 20 ng/ml FGF10; • Formulation 2: the Basal Medium was added with 10 nM β-estradiol, 1 mM sodium pyruvate, 50 ng/ml IGF1, 20 ng/ml bFGF, 10 ng/ml TNF-α and 20 ng/ml of FGF10; • Formulation 3: the Basal Medium was added with 10 nM β-estradiol, 1:100-fold diluted MEM-NEAA, 50 ng/ml IGF1, 20 ng/ml bFGF, and 10 ng/ml TNF-α and 20 ng/ml FGF10; • Formulation 4: the Basal Medium was added with 10 nM β-estradiol, 1:100-fold diluted MEM-NEAA, 1 mM sodium pyruvate, 20 ng/ml bFGF, and 10 ng/ml TNF-α and 20 ng/ml FGF10; • Formulation 5: the Basal Medium was added with 10 nM β-estradiol, 1:100-fold diluted MEM-NEAA, 1 mM sodium pyruvate, 50 ng/ml IGF1, and 10 ng/ml TNF-α and FGF10 at 20 ng/ml; • Formulation 6: the Basal Medium was added with 10 nM β-estradiol, 1:100-fold diluted MEM-NEAA, 1 mM sodium pyruvate, 50 ng/ml IGF1, 20 ng/ml bFGF and 20 ng/ml FGF10; • Formulation 7: the Basal Medium was added with 10 nM β-estradiol, 1:100-fold diluted MEM-NEAA, 1 mM sodium pyruvate, 50 ng/ml IGF1, 20 ng/ml bFGF and 10 ng/ml of TNF-α.
Subsequently, β-estradiol (Sigma) was added to Formulation 1 to prepare culture mediums for human mammary epithelial cells containing β-estradiol at final concentrations of 5 nM, 10 nM, 50 nM, and 100 nM, and each culture medium was added to a 96-well plate coated with Matrigel at a volume of 100 μl/well, with 3 replicates for each concentration. The primary breast cancer cells (2 #) isolated from breast tumor tissue in Example (1) were seeded in a Matrigel-coated 96-well culture plate at a density of 500 cells/well and cultured in Formulation 1 containing different concentrations of β-estradiol at 37° C. and 5% CO2. The culture medium was replaced every 3 days after the start of culture. On the 14th day of culture, the cells were counted. Formulation 1 was used as an experimental control, i.e., the content of β-estradiol was 0 nM.
Non-essential amino acids (MEM-NEAA) additive (Thermo Fisher) was added to Formulation 2 at a dilution ratio of 1:200, 1:100, 1:50, and 1:20 to prepare culture mediums for human mammary epithelial cells containing different concentrations of non-essential amino acids. The culture mediums of different formulations were added to a 96-well plate coated with Matrigel at a volume of 100 μl/well, with 3 replicates for each concentration. Primary cells were cultured and counted in the same manner as above. As an experimental control, Formulation 2 was used, i.e., the content of non-essential amino acids was 0.
Similarly, sodium pyruvate (Thermo Fisher) was added to Formulation 3 to prepare culture mediums for human mammary epithelial cells containing sodium pyruvate at final concentrations of 0.5 mM, 1 mM, 2 mM, and 4 mM. […] Primary cells were cultured and counted in the same manner as above. […]
Then, insulin-like growth factor 1 (IGF1, manufactured by R&D) was added to formulation 4 to prepare culture mediums for human mammary epithelial cells containing IGF1 at final concentrations of 10 ng/ml, 20 ng/ml, 50 ng/ml, 100 ng/ml, and 200 ng/ml, and the culture mediums containing different concentrations of IGF1 were added to a 96-well plate coated with Matrigel at a volume of 100 μl/well, with 3 replicates for each concentration. Primary cells were cultured and counted in the same manner as above. […]

Molecule	sensitivity of breast cancer cells to drug (in words) (breast tumor cells (5 #))	Level of promoting proliferation [1]	effect on in vitro proliferation of primary breast cancer cells (in words) [2]	promotion of growth of primary breast tumor cells (in words) [1]
CCCCCOC(=O)Nc1nc(=O)n([C@@H]2O[C@H](C)[C@@H](O)[C@H]2O)cc1F [capecitabine]	less sensitive			
C[C@@H](Oc1cc(-c2cnn(C3CCNCC3)c2)cnc1N)c1c(Cl)ccc(F)c1Cl [crizotinib]	less sensitive			
CC(=O)O[C@@]12CO[C@@H]1C[C@H](O)[C@@]1(C)C(=O)[C@H](O)C3=C(C)[C@@H](OC(=O)[C@H](O)[C@@H](NC(=O)OC(C)(C)C)c4ccccc4)C[C@@](O)([C@@H](OC(=O)c4ccccc4)[C@H]21)C3(C)C [docetaxel]	more sensitive			
COc1cc([C@@H]2c3cc4c(cc3[C@@H](O[C@@H]3O[C@@H]5CO[C@@H](C)O[C@H]5[C@H](O)[C@H]3O)[C@H]3COC(=O)[C@H]23)OCO4)cc(OC)c1O [etoposide]	more sensitive			
CC(=O)C(=O)[O-].[Na+] [sodium pyruvate]		∘		
C[C@]12CC[C@@H]3c4ccc(O)cc4CC[C@H]3[C@@H]1CC[C@@H]2O [β-estradiol]		∘	obvious proliferative effects	
basic fibroblast growth factor		++	obvious proliferative effects	stronger
insulin-like growth factor 1		+	obvious proliferative effects	promote the growth
tumor necrosis factor α		++	obvious proliferative effects	stronger
B1		+	dose-dependent pro-proliferation effect	promote the growth

— patent US20250101378A1, “CULTURE MEDIUM AND CULTURE METHOD FOR MAMMARY EPITHELIAL CELLS, AND USE OF MAMMARY EPITHELIAL CELLS” (PRECEDO PHARMACEUTICALS CO., LTD, priority 2022, published 2025)
